Counter-ions that a name gives are not always drawn.
Tests used:
[1] = antipentylenetetrazol test (pentylenetetrazol 125 mg/kg s.c.); format: in vivo; conditions: sc; SLC ddY male mouse, 20-24 g; pentylenetetrazol preliminarily administered at 125 mg/kg s.c.; read-out: ED50 anti-pentylenetetrazol test
Procedure: (§1) *^1 test animal: SLC ddY male mouse, 20-24 g of body weight
*^2 pentylenetetrazol was preliminarily administered at a dose of 125
mg per 1 kg of body weight in subcutaneous injection.

rotarod performance test = format: in vivo; conditions: SLC ddY male mouse, 20-24 g
From the text: as §1

acute lethality (LD50) = conditions: in vivo; DS male mouse, 20-24 g

Structure (SMILES)	ED50 [1] [mg/kg]	ED50 (rotarod performance test) [mg/kg]	LD50 (acute lethality (LD50)) [mg/kg]
CN1CCN(C=C2N=C3COC(c4ccccc4Cl)c4cc(Cl)ccc4N3C2=O)CC1 (centres unmarked)	3.28	> 100	> 1000
CN1C(=O)CN=C(c2ccccc2)c2cc(Cl)ccc21 [diazepam, reference compound]	1.2	13.4	–
Cc1nnc2n(c1=O)-c1ccc(Cl)cc1C(c1ccccc1Cl)OC2 (centres unmarked)	0.75	24.5	> 1000
Cc1nnc2n1-c1ccc(Cl)cc1C(c1ccccc1Cl)OC2 (centres unmarked)	0.74	30.6	> 1000
CN1CCN=C(c2ccccc2)c2cc(Cl)ccc21 [medazepam, reference compound]	4.76	104	> 1000
NCc1nnc2n1-c1ccc(Cl)cc1C(c1ccccc1Cl)OC2 (centres unmarked) [drawing 27 (H, hydrobromide)]	2.49	24.1	> 1000
CCOC1(c2ccccc2Cl)OCc2nnc(CN)n2-c2ccc(Cl)cc21 (centres unmarked) [drawing 27 (OC2H5, 1/2 succinate)]	1.14	33.5	> 1000
CN(C)C=C1N=C2COC(c3ccccc3Cl)c3cc(Cl)ccc3N2C1=O (centres unmarked)	1.6	73.5	> 1000

— patent publication US4297280A, “4,1-Benzoxazepines” (Shionogi & Co., Ltd., priority 1978, dated 1981)
